The values that follow come from ChEMBL document CHEMBL1135004, “Natural and synthetic geiparvarins are strong and selective MAO-B inhibitors. Synthesis and SAR studies” (Bioorg Med Chem Lett, 2002).

Each structure is given as a SMILES string. pIC50: −log10 of the molar value.

For data set [1], the target named is T1, Amine oxidase [flavin-containing] B (Homo sapiens, UniProt P27338).
T1 sequence (P27338 whole entry): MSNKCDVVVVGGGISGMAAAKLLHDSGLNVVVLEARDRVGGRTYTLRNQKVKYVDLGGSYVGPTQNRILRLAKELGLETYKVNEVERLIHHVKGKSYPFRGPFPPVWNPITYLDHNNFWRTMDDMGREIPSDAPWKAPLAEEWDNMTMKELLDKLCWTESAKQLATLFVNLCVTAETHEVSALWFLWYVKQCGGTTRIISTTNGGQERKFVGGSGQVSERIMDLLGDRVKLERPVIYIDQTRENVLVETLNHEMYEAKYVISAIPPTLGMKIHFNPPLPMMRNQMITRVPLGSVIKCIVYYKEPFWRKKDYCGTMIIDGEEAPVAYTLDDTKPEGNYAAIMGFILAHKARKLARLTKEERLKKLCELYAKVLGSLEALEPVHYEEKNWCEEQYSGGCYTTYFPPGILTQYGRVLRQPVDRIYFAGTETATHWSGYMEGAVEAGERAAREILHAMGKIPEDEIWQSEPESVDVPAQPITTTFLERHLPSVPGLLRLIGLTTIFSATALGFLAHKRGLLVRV
Put plainly: Inhibitory potency against Monoamine oxidase B.

For data set [2], the target named is T2, Monoamine oxidase A (Homo sapiens, UniProt P21397).
T2 sequence (P21397 whole entry): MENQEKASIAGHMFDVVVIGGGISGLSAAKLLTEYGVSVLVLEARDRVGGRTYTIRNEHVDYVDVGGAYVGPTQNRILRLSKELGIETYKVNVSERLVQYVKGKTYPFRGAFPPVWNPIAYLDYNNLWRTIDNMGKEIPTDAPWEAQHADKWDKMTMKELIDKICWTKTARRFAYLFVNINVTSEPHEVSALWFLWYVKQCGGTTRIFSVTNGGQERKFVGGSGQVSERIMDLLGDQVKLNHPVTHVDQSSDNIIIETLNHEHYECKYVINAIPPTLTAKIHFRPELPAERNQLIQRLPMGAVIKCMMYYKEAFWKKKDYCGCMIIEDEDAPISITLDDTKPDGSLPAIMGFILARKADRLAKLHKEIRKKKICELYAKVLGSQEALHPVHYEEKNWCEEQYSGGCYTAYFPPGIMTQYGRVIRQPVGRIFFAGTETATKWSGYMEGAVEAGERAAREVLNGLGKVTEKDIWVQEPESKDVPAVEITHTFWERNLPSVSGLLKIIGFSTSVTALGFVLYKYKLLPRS
Put plainly: Inhibitory potency against Monoamine oxidase A at 10 uM.

Data set [3] deals with T3, Amine oxidase [flavin-containing] A (Homo sapiens, UniProt P21397).
T3 sequence (P21397 whole entry): T2 sequence (P21397 whole entry)
Put plainly: Inhibitory potency against Monoamine oxidase A.

Data set [4] deals with T2, Monoamine oxidase A. Put plainly: Inhibitory potency against Monoamine oxidase A at 3 uM.

For the compound `CC(=O)/C=C/C=C/COc1ccc2ccc(=O)oc2c1`, the pIC50 – broadly, the IC50 on a negative log10 scale, so that one unit is a factor of ten – in data set [1] was 5.77. For the same compound, testing at 10 µM in data set [2] gave an inhibition of 26%.

Take `Cc1c(C)c2ccc(OC/C=C/C3=CC(=O)C(C)(C)O3)cc2oc1=O`: the pIC50 is 4.95 in data set [3] and 6.20 in data set [1].

In the case of `C/C(=C\COc1ccc2c(C)c(C)c(=O)oc2c1)C1=CC(=O)C(C)(C)O1`, the pIC50 in data set [1] is 6.89. The inhibition – broadly, the relative decrease from the control value, in per cent – at 10 µM in data set [2] turned out to be 37%.

`Cc1cc(=O)oc2cc(OC/C=C/C3=CC(=O)C(C)(C)O3)ccc12` gave a pIC50 in data set [1] of 6.77. Further, the inhibition at 10 µM in data set [2] was found to be 27%.

For the compound `Cc1cc2ccc(OC/C=C/C3=CC(=O)C(C)(C)O3)cc2oc1=O`, the figures for the pIC50 in data set [3] and in data set [1] were 4.82 and 6.23, respectively.

Compound `CC1(c2ccccc2)OC(/C=C/COc2ccc3ccc(=O)oc3c2)=CC1=O` (stereo unspecified) returned an inhibition at 3 µM in data set [4] of 0%. For the same compound, the pIC50 in data set [1] was 5.82.

In the case of `CC1(C)OC(/C=C/COc2ccc3ccc(=O)oc3c2)=CC1=O`, the negative logarithm of the IC50 (pIC50) was 4.62 in data set [3] and 7.55 in data set [1].

As for `C/C(=C\COc1ccc2ccc(=O)oc2c1)C1=CC(=O)C(C)(C)O1` [GEIPARVARIN], the pIC50 in data set [3] is 4.57; in data set [1] it was 6.84.
